Structures are written as SMILES. Active and inactive are the calls of the source. The rule behind the calls is not given here.

This assay has as its target Calpain-2 catalytic subunit (Sus scrofa) (UniProt P43367). Kind of assay: m-calpain protease blockers, concentration series – biochemical, fluorogenic peptide substrate, dose response (AID 1420). The note with it: purified calpain II, 30 min.

Sequence of Calpain-2 catalytic subunit (Sus scrofa) (P43367 whole entry, looked up): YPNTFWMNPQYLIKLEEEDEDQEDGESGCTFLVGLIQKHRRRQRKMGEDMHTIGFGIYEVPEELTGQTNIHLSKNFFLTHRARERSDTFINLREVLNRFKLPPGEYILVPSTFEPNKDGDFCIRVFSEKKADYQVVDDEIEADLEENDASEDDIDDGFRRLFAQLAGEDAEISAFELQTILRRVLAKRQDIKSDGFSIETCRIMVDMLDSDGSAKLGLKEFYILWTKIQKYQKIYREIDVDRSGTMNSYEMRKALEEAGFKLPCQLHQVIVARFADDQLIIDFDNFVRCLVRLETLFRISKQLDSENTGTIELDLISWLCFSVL

Consider `CC(C)(C)C1CCC(=NNc2ccc(S(N)(=O)=O)cc2[N+](=O)[O-])CC1` (stereo unspecified), for which the IC50 entry is “inactive”.

Values taken from PubChem BioAssay AID1420 (Emory University Molecular Libraries Screening Center, 2008).
